Results published in PMC5769417, “Single- and Multiple-Dose Trials to Determine the Pharmacokinetics, Safety, Tolerability, and Sex Effect of Oral Ginsenoside Compound K in Healthy Chinese Volunteers” (Frontiers in Pharmacology, 2018).
“And” between values parts separate entries of the source, which are not always exact repeats. Identical values can stand only once. Like-named read-outs stand apart in the source and are kept apart here.

Experiment: Multiple-dose trial, plasma pharmacokinetics
Assay type: in vivo, human
Details: for MRT last / AUC / concentration at 15 day / half-life / Tmax / AUC(0-inf) / AUC(0-t) / MRT inf / Cmax: human, plasma; for AUC: Day 15, read-out: AUCτ (zero to 24 h); for concentration at 15 day: Day 15, steady state, read-out: Cmin
Procedure: Multiple-dose pharmacokinetics: […] Multiple-dose pharmacokinetics: […] All samples were preserved at −70°C and analyzed with a LC-MS/MS (API 4000 LC-MS/MS, ABI Company, Foster City, CA, USA) at the Institute of Clinical Pharmacology, Central South University (Changsha, China). […] An aqueous solution of a stable internal standard (IS for CK: digoxin, Shijiaoke Biological Technology Co. Ltd., Beijing, China; IS for PPD: coumarin, Sigma-Aldrich, St. Louis, USA) and 1 M phosphate buffer were added to 0.5 ml of thawed sample, and analytical standards and quality control (QC) samples were prepared in the same matrix. All samples were treated with 2 ml of methyl tert-butyl ether (MTBE, CNW technologies GmbH, Duesseldorf, Germany) to precipitate the bulk of plasma proteins. After mechanical shock by mixing for 10 min and a subsequent centrifugation (4,000 rpm, 4°C, 10 min), 1.4 ml of the supernatant was transferred and blow-dried with nitrogen in a water bath at 40°C. Lastly, the residue was dissolved in 100 μl of mobile phase and then was subjected to a mechanical shock by mixing, and centrifuged. The supernatant was subsequently injected into the column for analysis. […] Accuracy and precision of the assay were determined by evaluating the performance of the assay controls. Over the quantification range, the accuracy of the QC samples varied from 85 to 115% and the intra- and inter-assay imprecision was <15%. […] The area under the curve (AUC) from time zero to the last time point (AUClast) and the AUC extrapolated to infinity (AUCinf) were calculated using the linear trapezoidal rule. The slope (elimination rate constant, K) of the terminal phase of the plasma concentration-time profile was determined, using a weighting factor of 1, by the method of least squares (log-linear regression of at least three data points). The t1/2 was estimated as (ln2)/K. […] The apparent volume of distribution (V/F) was equal to (CL/F)/K. The mean residence time (MRT) was calculated as the area under the first moments curve (AUMC) divided by AUC. The dose-normalized PK parameters e.g., Cmax/D and AUClast/D, were obtained by dividing each PK result by the administered dose. The cumulative excretion rate was calculated as the amount of unchanged drug in the urine over a time interval divided by the dose and was expressed as thousand points (‰). On day 15 in the multiple-dose trial, the PK parameters, such as t1/2, CL/F, and V/F at steady state were calculated using the same method as that used for the single-dose trial. In addition, the Tmax at steady state (Tmax,ss), Cmax at steady state (Cmax,ss), and Cmin,ss were obtained from experimental observation after the steady state during the multiple-dose trial. […] The average steady-state drug concentration (Cavg) is calculated as AUCτ/τ, and the fluctuation ratio was calculated as (Cmax,ss − Cmin,ss)/Cavg. The accumulation index was calculated using dosing interval and elimination rate constant as in the following equation: 1/(1 − e^−Kτ).

[1] = 100 mg oral after breakfast, Day 1
[2] = 100 mg qd oral after breakfast, Day 15
[3] = 200 mg oral after breakfast, Day 1
[4] = 200 mg qd oral after breakfast, Day 15
[5] = 400 mg oral after breakfast, Day 1
[6] = 400 mg qd oral after breakfast, Day 15
[7] = both sexes, 100 mg qd oral after breakfast
[8] = both sexes, 200 mg qd oral after breakfast
[9] = both sexes, 400 mg qd oral after breakfast
[10] = both sexes, po, 100 mg, 100 mg oral after breakfast, Day 1
[11] = both sexes, po, 100 mg, 100 mg qd oral after breakfast, Day 15
[12] = both sexes, po, 200 mg, 200 mg oral after breakfast, Day 1
[13] = both sexes, po, 200 mg, 200 mg qd oral after breakfast, Day 15
[14] = both sexes, po, 400 mg, 400 mg oral after breakfast, Day 1
[15] = both sexes, po, 400 mg, 400 mg qd oral after breakfast, Day 15

CC(C)=CCC[C@](C)(OC1O[C@H](CO)[C@@H](O)[C@H](O)[C@H]1O)[C@H]1CC[C@]2(C)[C@@H]1[C@H](O)C[C@@H]1[C@@]3(C)CC[C@H](O)C(C)(C)[C@@H]3CC[C@]12C (stereo partly drawn) [CK, 20-O-beta-D-glucopyranosyl-20(S)-protopanaxadiol]
CL/F [1]: 11.6 ± 3.0 l·h ^−1
V/F [1]: 402 ± 54 L
AUMCτ (zero to 24 h) [2]: 60141.5 ± 17696.2 ng·h/mL
CL/F [2]: 13.4 ± 3.6 l·h ^−1
Fluctuation [2]: 259.42% and 259.42 ± 48.85%
V/F [2]: 661 ± 242 L
Accumulation index (100 mg qd, 1/(1 − e^−Kτ)): 2.62 and 2.62 ± 0.62
CL/F [3]: 9.6 ± 3.1 l·h ^−1
V/F [3]: 326 ± 137 L
AUMCτ (zero to 24 h) [4]: 179177.1 ± 49122.9 ng·h/mL
CL/F [4]: 8.6 ± 2.5 l·h ^−1
Fluctuation [4]: 289.25% and 289.25 ± 35.75%
V/F [4]: 455 ± 152 L
Accumulation index (200 mg qd, 1/(1 − e^−Kτ)): 2.78 and 2.78 ± 0.73
CL/F [5]: 9.4 ± 2.4 l·h ^−1
V/F [5]: 358 ± 118 L
AUMCτ (zero to 24 h) [6]: 306621.5 ± 78711.0 ng·h/mL
CL/F [6]: 10.3 ± 3.0 l·h ^−1
Fluctuation [6]: 273.98% and 273.98 ± 37.16%
V/F [6]: 514 ± 188 L
Accumulation index (400 mg qd, 1/(1 − e^−Kτ)): 2.60 and 2.60 ± 0.31
accumulation index range (100–400 mg qd): 2.60–2.78
AUCinf/D, dose-normalized AUCinf (Day 1, Female): 116.58 ± 28.07^* h·ng·ml^−1·mg^−1
AUClast/D, dose-normalized AUClast (Day 1, Female): 114.23 ± 27.97 ng·h/mL/mg
Cmax/D, dose-normalized Cmax (Day 1, Female): 14.49 ± 4.07 ng/mL/mg
AUCinf/D, dose-normalized AUCinf (Day 1, Male): 94.22 ± 24.54 ng·h/mL/mg
AUClast/D, dose-normalized AUClast (Day 1, Male): 92.27 ± 24.00 ng·h/mL/mg
Cmax/D, dose-normalized Cmax (Day 1, Male): 11.00 ± 4.25 ng/mL/mg
AUCinf/D, dose-normalized AUCinf (Day 1, all subjects): 105.41 ± 28.29 ng·h/mL/mg
AUClast/D, dose-normalized AUClast (Day 1, all subjects): 103.25 ± 27.94 ng·h/mL/mg
Cmax/D, dose-normalized Cmax (Day 1, all subjects): 12.74 ± 4.46 ng/mL/mg
AUCinf/D, GMR (95% CI) (Day 1, between sexes): 1.25 (1.03–1.51)
AUClast/D, GMR (95% CI) (Day 1, between sexes): 1.25 (1.03–1.51)
Cmax/D, GMR (95% CI) (Day 1, between sexes): 1.37 (1.04–1.80)
AUCinf/D, GMR (95% CI) (Day 1 vs Day 15): 0.75 (0.64–0.87)
AUClast/D, GMR (95% CI) (Day 1 vs Day 15): 0.79 (0.67–0.91)
Cmax/D, GMR (95% CI) (Day 1 vs Day 15): 1.00 (0.82–1.22)
AUCinf/D, dose-normalized AUCinf (Day 15, Female): 153.33 ± 30.98 ng·h/mL/mg
AUClast/D, dose-normalized AUClast (Day 15, Female): 143.45 ± 29.33 ng·h/mL/mg
Cmax/D, dose-normalized Cmax (Day 15, Female): 14.25 ± 3.38 ng/mL/mg
AUCinf/D, dose-normalized AUCinf (Day 15, Male): 132.87 ± 52.60 ng·h/mL/mg
AUClast/D, dose-normalized AUClast (Day 15, Male): 123.74 ± 47.85 ng·h/mL/mg
Cmax/D, dose-normalized Cmax (Day 15, Male): 11.18 ± 5.19 ng/mL/mg
AUCinf/D, dose-normalized AUCinf (Day 15, all subjects): 143.10 ± 43.67 ng·h/mL/mg
AUClast/D, dose-normalized AUClast (Day 15, all subjects): 133.59 ± 40.26 ng·h/mL/mg
Cmax/D, dose-normalized Cmax (Day 15, all subjects): 12.71 ± 4.58 ng/mL/mg
AUCinf/D, GMR (95% CI) (Day 15, between sexes): 1.21 (0.96–1.53)
AUClast/D, GMR (95% CI) (Day 15, between sexes): 1.21 (0.96–1.52)
Cmax/D, GMR (95% CI) (Day 15, between sexes): 1.36 (1.04–1.76)
MRT last (both sexes, 100 mg oral after breakfast, Day 1): 12.2 ± 1.4 h
AUC [7]: 8000 ± 2320 ng·h/mL
concentration at 15 day [7]: 333 ± 96.7 ng/mL
MRT last (both sexes, 200 mg oral after breakfast, Day 1): 12.6 ± 1.6 h
AUC [8]: 24700 ± 6290 ng·h/mL
concentration at 15 day [8]: 1030 ± 262 ng/mL
MRT last (both sexes, 400 mg oral after breakfast, Day 1): 12.5 ± 1 h
AUC [9]: 41400 ± 10400 ng·h/mL
concentration at 15 day [9]: 1730 ± 432 ng/mL
half-life (both sexes, oral, 400 mg, Day 1, 100, 200 or 400 mg, read-out: mean t1/2 across the dose groups): 23.4 to 26.1 h
Tmax (both sexes, oral, 400 mg, Day 1, 100, 200 or 400 mg, read-out: median Tmax across the dose groups): 2.5 to 3 h
Tmax (both sexes, oral, Day 1, all subjects, read-out: Tmax, median (range)): 3 h
half-life (both sexes, oral, Day 1, all subjects, read-out: t1/2 (converted)): 24.9 ± 5.8 h
Tmax (both sexes, oral, Day 15, all subjects, read-out: Tmax, median (range)): 3.5 h
half-life (both sexes, oral, Day 15, all subjects, read-out: t1/2 (converted)): 35.3 ± 9.6 h
AUC(0-inf) [10]: 9070 ± 2060 ng·h/mL
AUC(0-t) [10]: 8880 ± 1990 ng·h/mL
MRT inf [10]: 14.6 ± 2.1 h
Cmax (both sexes, po, 100 mg, 100 mg oral after breakfast, Day 1, read-out: Cmax): 1120 ± 411 ng/mL
half-life (both sexes, po, 100 mg, 100 mg oral after breakfast, Day 1, read-out: t1/2 (converted)): 25.2 ± 5.6 h
AUC(0-inf) [11]: 11100 ± 3230 ng·h/mL
AUC(0-t) [11]: 10400 ± 3010 ng·h/mL
MRT inf [11]: 17 ± 2.2 h
Cmax (both sexes, po, 100 mg, 100 mg qd oral after breakfast, Day 15, read-out: Cmax): 934 ± 323 ng/mL
Tmax (both sexes, po, 100 mg, 100 mg qd oral after breakfast, Day 15, read-out: Tmax, median (range)): 3.8 h
half-life (both sexes, po, 100 mg, 100 mg qd oral after breakfast, Day 15, read-out: t1/2 (converted)): 34.6 ± 10.5 h
AUC(0-inf) [12]: 22700 ± 6350 ng·h/mL
AUC(0-t) [12]: 22300 ± 6320 ng·h/mL
MRT inf [12]: 14.9 ± 2 h
Cmax (both sexes, po, 200 mg, 200 mg oral after breakfast, Day 1, read-out: Cmax): 2880 ± 984 ng/mL
Tmax (both sexes, po, 200 mg, 200 mg oral after breakfast, Day 1, read-out: Tmax, median (range)): 3 h
half-life (both sexes, po, 200 mg, 200 mg oral after breakfast, Day 1, read-out: t1/2 (converted)): 23.4 ± 7.9 h
AUC(0-inf) [13]: 34000 ± 9060 ng·h/mL
AUC(0-t) [13]: 31600 ± 8130 ng·h/mL
MRT inf [13]: 16.1 ± 1.6 h
Cmax (both sexes, po, 200 mg, 200 mg qd oral after breakfast, Day 15, read-out: Cmax): 3180 ± 877 ng/mL
Tmax (both sexes, po, 200 mg, 200 mg qd oral after breakfast, Day 15, read-out: Tmax, median (range)): 3.5 h
half-life (both sexes, po, 200 mg, 200 mg qd oral after breakfast, Day 15, read-out: t1/2 (converted)): 37.3 ± 12.3 h
AUC(0-inf) [14]: 44900 ± 11200 ng·h/mL
AUC(0-t) [14]: 43900 ± 11100 ng·h/mL
MRT inf [14]: 15.2 ± 1.5 h
Cmax (both sexes, po, 400 mg, 400 mg oral after breakfast, Day 1, read-out: Cmax): 5060 ± 1650 ng/mL
Tmax (both sexes, po, 400 mg, 400 mg oral after breakfast, Day 1, read-out: Tmax, median (range)): 3 h
half-life (both sexes, po, 400 mg, 400 mg oral after breakfast, Day 1, read-out: t1/2 (converted)): 26.1 ± 3.3 h
AUC(0-inf) [15]: 59200 ± 13300 ng·h/mL
AUC(0-t) [15]: 55200 ± 12800 ng·h/mL
MRT inf [15]: 17.9 ± 1.8 h
Cmax (both sexes, po, 400 mg, 400 mg qd oral after breakfast, Day 15, read-out: Cmax): 5170 ± 1500 ng/mL
half-life (both sexes, po, 400 mg, 400 mg qd oral after breakfast, Day 15, read-out: t1/2 (converted)): 34.2 ± 5.3 h
Tmax (female, oral, Day 1, Female, read-out: Tmax, median (range)): 3 h
half-life (female, oral, Day 1, Female, read-out: t1/2 (converted)): 26.4 ± 6.2 h
Tmax (female, oral, Day 15, Female, read-out: Tmax, median (range)): 3.5 h
half-life (female, oral, Day 15, Female, read-out: t1/2 (converted)): 36.3 ± 1.05 h
Tmax (male, oral, Day 1, Male, read-out: Tmax, median (range)): 3 h
half-life (male, oral, Day 1, Male, read-out: t1/2 (converted)): 23.3 ± 5.2 h
Tmax (male, oral, Day 15, Male, read-out: Tmax, median (range)): 3.5 h
half-life (male, oral, Day 15, Male, read-out: t1/2 (converted)): 34.3 ± 9.8 h
steady state reached (once daily): after the 7th administration
Accumulation index (overall): ~2.66
